Assay results published in US12714686B2, “N-propargylglycine: a unique inhibitor of proline dehydrogenase with brain-enhancing mitohormesis properties capable of mitigating the pathogenesis of neurodegenerative disorders” (Buck Institute for Research on Aging, priority 2020, dated 2026).
Entries after “also recorded” stand apart in the source; their conditions may differ.

What was measured:
[1] = target: T1, PRODH (Mus musculus, UniProt Q9WU79); test: Study A: oral N-PPG in wildtype mice, whole brain PRODH protein (western blot) and mRNA; format: in vivo; settings: whole brain lysates
T1 construct: Western blots of whole brain lysates from wildtype B6/CBA mice; from tissue; R6/2 Htt-mut in B6/CBA background
T1 sequence (Q9WU79 1-599): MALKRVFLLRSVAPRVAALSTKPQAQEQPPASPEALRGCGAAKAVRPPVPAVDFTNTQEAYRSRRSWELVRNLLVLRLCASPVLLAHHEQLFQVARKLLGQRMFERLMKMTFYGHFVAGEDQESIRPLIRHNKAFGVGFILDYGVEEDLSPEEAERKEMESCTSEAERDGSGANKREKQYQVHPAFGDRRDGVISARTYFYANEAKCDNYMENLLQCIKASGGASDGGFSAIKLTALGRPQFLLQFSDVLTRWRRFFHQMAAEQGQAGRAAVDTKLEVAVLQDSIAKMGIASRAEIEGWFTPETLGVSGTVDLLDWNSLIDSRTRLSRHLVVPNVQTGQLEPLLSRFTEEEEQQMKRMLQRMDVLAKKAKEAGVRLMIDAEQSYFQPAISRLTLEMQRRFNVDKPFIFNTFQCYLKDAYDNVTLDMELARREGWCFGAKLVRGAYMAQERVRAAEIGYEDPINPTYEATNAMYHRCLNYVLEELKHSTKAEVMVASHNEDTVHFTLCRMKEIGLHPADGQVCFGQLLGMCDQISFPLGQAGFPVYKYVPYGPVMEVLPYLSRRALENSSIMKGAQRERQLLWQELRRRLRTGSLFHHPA
Description: (§1) For Study A, beginning at 5 weeks of age, seven male and female mice (WT) were daily administered oral N-PPG over a graduated dose range of 50 mg/kg to 200 mg/kg for 9 days, while 4 other age- and sex-matched control mice (W) were given only daily saline.
(§2) For Study B, beginning at 5-weeks of age, four male and female Htt-mut mice (HT) were administered oral N-PPG at 50 mg/kg daily for 9 days, while four other age- and sex-matched Htt-mut mice (H) were given only daily saline. All Study A and B mice were sacrificed within 4 h of receiving their last treatment (week 7). […] Excised brains were snap frozen in liquid nitrogen for latter cryopulverization, extraction and analysis of total brain RNA and protein.

[2] = test system: YME1L1; test: Study A: brain UPRmt protease YME1L1 mRNA and protein expression; format: in vivo, mouse
Description: as §1, §2

[3] = test system: HSP-60; test: Study A: brain chaperone HSP-60 transcripts by RT-PCR; format: in vivo; settings: single mouse brain, 200 mg/kg oral N-PPG, 9 days
Description: as §1, §2

[4] = test system: mouse brain transcriptome; test: Study A: whole brain transcriptome (RNAseq) and pathway analysis; format: in vivo
Description: as §1, §2

[5] = Tolerability of oral N-PPG in Study A and B mice (body weight, vitality, side effects); format: in vivo, mouse
Description: as §1, §2

[6] = target: T1, PRODH; test: Study B: oral N-PPG in Htt-mut (R6/2) mice, whole brain PRODH protein; format: in vivo; settings: HT mice, 50 mg/kg/day orally x 9 days vs saline, compared with wildtype
Description: as §2

[7] = test system: YME1L1; test: Study B: brain YME1L1 in Htt-mut and wildtype mice; format: in vivo, mouse; settings: 50 mg/kg/day oral N-PPG, 9 days
Description: as §2

[8] = test system: Htt-mut mouse brain transcriptome; test: Study B: whole brain RNA transcriptome (RNAseq) of Htt-mut mice; format: in vivo
Description: as §2

[9] = Brain penetration of orally administered N-PPG; format: in vivo; settings: oral, repeated administration; inferred from brain UPRmt induction
[10] = test system: PRODH expressing mammalian cell systems; test: UPRmt activation and mitohormesis induction in PRODH expressing mammalian cell systems; format: cell-based; settings: all PRODH expressing mammalian cell systems studied to date
[11] = target: T2, proline dehydrogenase (PRODH) (Homo sapiens, UniProt O43272); test: PRODH enzyme inhibition; format: biochemical
T2 sequence (O43272 1-600): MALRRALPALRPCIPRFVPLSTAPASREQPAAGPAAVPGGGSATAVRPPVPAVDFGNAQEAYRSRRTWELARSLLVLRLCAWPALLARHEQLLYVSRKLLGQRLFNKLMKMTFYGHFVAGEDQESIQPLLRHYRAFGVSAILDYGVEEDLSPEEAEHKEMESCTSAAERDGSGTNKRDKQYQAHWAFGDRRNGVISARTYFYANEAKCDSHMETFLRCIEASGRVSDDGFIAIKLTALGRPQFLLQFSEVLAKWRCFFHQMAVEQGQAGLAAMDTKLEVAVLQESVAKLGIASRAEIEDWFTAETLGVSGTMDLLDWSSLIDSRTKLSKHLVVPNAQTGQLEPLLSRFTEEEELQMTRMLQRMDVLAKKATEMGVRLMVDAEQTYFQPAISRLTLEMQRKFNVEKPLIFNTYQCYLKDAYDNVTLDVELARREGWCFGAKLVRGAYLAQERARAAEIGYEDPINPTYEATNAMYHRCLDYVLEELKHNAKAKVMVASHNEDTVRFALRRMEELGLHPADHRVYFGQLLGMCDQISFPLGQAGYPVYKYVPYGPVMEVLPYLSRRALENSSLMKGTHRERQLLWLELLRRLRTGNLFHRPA

[12] = over-representation analysis, FDR p<0.05

With `C#CCNCC(=O)O` [N-PPG, N-propargylglycine] the “reduction in mean PRODH expression (PRODH signals normalized to β-actin or Rieske)” value ([1]; wildtype B6/CBA mice, oral 50 mg/kg N-PPG for nine days vs saline) was “at least 30%”, the “normalized mean PRODH expression levels” value ([1]; wildtype mice, oral saline, 50, 100, 150 or 200 mg/kg N-PPG) was “dose-dependent decline” and the “mitochondrial YME1L1 mRNA and protein expression” value ([2]; WT mice, 50 mg/kg dose, brain) was “increased”. For the same compound, the “induction of mitochondrial protease YME1L1 transcripts relative to housekeeping transcripts” value ([2]; single mouse brain, 200 mg/kg oral N-PPG, 9 days, RT-PCR) was 1.4 fold, the “increase in mean YME1L1 expression (signals normalized to β-actin or Rieske)” value ([2]; wildtype mice, 50 mg/kg oral N-PPG vs saline, whole brain lysates, western blot) was ~ 40% and the “induction of chaperone HSP-60 transcripts relative to housekeeping transcripts” value [3] was 1.7 fold. The “whole brain transcriptome pathway analysis” value ([4]; WT vs W mice, RNAseq, FDR p<0.05) was “upregulation of pathways (GO, Reactome) specifically regulating neuronal cell functions”, the “genes differentially expressed (p<0.05) between N-PPG treated and saline treated brains” value ([4]; five WT (50 mg/kg, one 100 mg/kg, oral 9 days) vs four W brains, RNAseq) was 1324 genes and the “upregulated genes among the differentially expressed genes” value ([4]; five WT vs four W brains, RNAseq) was 841 genes. The “Reactome neural pathways encoded by upregulated genes” value [4, 12] was 7, the “enriched Gene Ontology (GO) pathways encoded by upregulated genes” value [4, 12] was 77 and the “health of mice at sacrifice (repeated body weight and vitality measurements)” value ([5]; all Study A and B mice, week 7) was “healthy and asymptomatic”. For the same compound, the “systemic or neurologic side effects” value ([5]; mice, daily oral 50 to 200 mg/kg N-PPG, 9 days) was “without any systemic or neurologic side effects; also recorded: without causing any adverse systemic or neurologic consequences”, the “brain PRODH protein decay in Htt-mut mice” value [6] was “partial mitochondrial PRODH protein degradation” and the “brain YME1L1 in Htt-mut and wildtype mice” value [7] was “YME1L1 upregulation”. For the same compound, the “normalization of deranged whole brain transcriptome of Htt-mut mice” value ([8]; HT mice, 50 mg/kg/day orally x 9 days vs untreated H, includes TH, DRD1, ADORA2A, 50 mg/kg/day) was “partial-to complete normalization; also recorded: normalizes HT transcriptomes away from Htt-mut (H) and more toward wildtype (W)”, the “differentially expressed genes between WT, HT, W and H brains” value ([8]; Study B, RNAseq, FDR p<0.05) was 622 genes and the “Htt-mut treated mice with full transcriptome normalization” value ([8]; four HT mice, 50 mg/kg/day orally x 9 days) was “one of the four”. For the same compound, the “crossing of the blood-brain-barrier” value [9] was “capable of crossing the mammalian blood-brain-barrier” and the “activation of UPRmt and induction of mitohormesis” value (from here on “activation”) [10] was “activate the mitochondrial unfolded protein response (UPRmt) and induce mitohormesis”.

For `O=C(O)C1NCCS1` (centres unmarked) [T2C], the “activation” value [10] was “do not activate the UPRmt or induce mitohormesis” and the “PRODH enzyme inhibiting potency relative to N-PPG” value [11] was “comparable”.

For `O=C1CCC(C(=O)O)O1` (centres unmarked) [5-oxo], the “activation” value [10] was “do not activate the UPRmt or induce mitohormesis” and the “PRODH enzyme inhibiting potency relative to N-PPG” value [11] was “comparable”.

In the case of `O=C(O)C1CCCO1` (centres unmarked) [THFA], the “activation” value [10] is reported as “do not activate the UPRmt or induce mitohormesis” and the “PRODH enzyme inhibiting potency relative to N-PPG” value [11] is reported as “comparable”.
